Key:
[1] = Singlet oxygen generation ability, ABDA absorbance decay method; assay type: physicochemical; conditions: 5 μmol/L compound, 50 μmol/L ABDA, aqueous solution, blue LED 470 nm, 20 mW/cm^2, 180 s; FIG. 4
[2] = system: total number of colonies of the Chinese tube whip shrimps; assay: Total sterilization effect experiment: total number of colonies (aerobic plate count) of photodynamically treated shrimp in 4° C. storage; assay type: cell-based; conditions: 20 μmol/L
Method: The total sterilization effect experiment and sensory evaluation of the Chinese tube whip shrimps obtained from Application Example 1, Comparative Application Example 1, and Comparative Application Example 2 were carried out. The specific steps are as follows: • (1) the Chinese tube whip shrimps obtained from Application Example 1, Comparative Application Example 1, and Comparative Application Example 2 were put into a fresh-keeping bag of a fresh-keeping box, and stored in a refrigerator at 4° C.; • (2) when stored for 2, 4, 6, 8, and 10 days, according to the method specified in the national standard GB/T 4789.2-2016 Food Microbiological Examination—Aerobic Plate Count, the total number of colonies of the Chinese tube whip shrimps treated in step (1) was measured; and • (3) when stored for 2, 4, 6, 8, and 10 days, a sensory evaluation team conducted sensory scores on the stored shrimps; the sensory score team was composed of 10 strictly trained personnel to evaluate the appearance, odor, and posture of the processed Chinese tube whip shrimps, and the average value was taken. The scoring criteria are shown in Table 1, and the sensory score result is the sum of the 3 indicator scores with a total score of 18 indicating absolute freshness and 9 indicating significant quality deterioration.
From this, it can be seen that the shelf life of refrigerated Chinese tube whip shrimp in Comparative Application Example 1 and Comparative Application Example 2 is only 4 days.

| SMILES | singlet oxygen generation ability [1] | bacterial growth (total number of colonies) ([2]; soaking 10 min, blue LED 10 W, 470 nm, 120 s, stored at 4° C. for 2-10 days, vs Comparative Application Examples 1 and 2, p<0.05, FIG. 6) | freshness level by total number of colonies ([2]; after 10 days of refrigeration at 4° C., blue LED 10 W, 470 nm, 120 s) | freshness level by total number of colonies ([2]; on the 4th day of refrigeration at 4° C., blue LED 10 W, 470 nm, 120 s) | shelf life of fresh shrimp (in words) ([2]; photodynamic treatment of Chinese tube whip shrimp, stored at 4° C.) | shelf life of refrigerated Chinese tube whip shrimp ([2]; soaking 10 min, blue LED 10 W, 470 nm, 120 s, stored at 4° C., end of shelf life by total number of colonies) [days] |
| --- | --- | --- | --- | --- | --- | --- |
| COc1cc(/C=C/C=C/C(O)=C/C(=O)/C=C/c2ccc(Br)c(OC)c2)ccc1Br [Embodiment 1] | higher than that of the single bromine substituted curcumin derivative obtained in Embodiment 2 | significantly inhibited | approached second-level freshness | first-level freshness (the shrimp with a total number of colonies of ≤10^5 CFU/g is considered as first-level freshness) | significantly prolonged |  |
| COc1cc(/C=C/C(=O)CC(=O)/C=C/c2ccc(O)c(OC)c2)ccc1O [natural curcumin, curcumin, reference compound] |  |  |  |  |  | 4 |

Source: patent US20240279149A1 (ZHEJIANG OCEAN UNIVERSITY, priority 2021, published 2024)
